Data: publication PMC6321484, “Deep Eutectic Solvent-Based Ultrahigh Pressure Extraction of Baicalin from Scutellaria baicalensis Georgi” (Molecules, 2018)
Converted amounts (≈) assume the structure as drawn.

Test: Equilibrium solubility of baicalin in different solvents (excess compound, HPLC)
Type: physicochemical
Settings: for Solubility of Baicalin: excess compound stirred at 40 °C for 2 h, HPLC
Description: Solubility tests were carried out using distilled water, 70% ethanol and DESs with an excess of the tested compound in a capped bottle and stirred at 40 °C for 2 h. The resulting mixture containing undissolved solid compounds were centrifuged. The supernatant was transferred to a 5 mL-microtube, diluted with methanol and vortexed to a homogeneous solution. The concentration of baicalin in the solution was monitored by HPLC. All solubility tests were performed in triplicate.

Q: What does the source list for `O=C(O)[C@H]1O[C@@H](Oc2cc3oc(-c4ccccc4)cc(=O)c3c(O)c2O)[C@H](O)[C@@H](O)[C@@H]1O` [baicalin]?
A: solubility thermodynamic at 2 h (40 °C, organic solvent or mixture, thermodynamic from solid, solvent: DES-1, room temperature): 22.7 mg/mL (≈ 50.9 mM); Solubility of Baicalin (solvent: 70% Ethanol): 1.85 mg/g; Solubility of Baicalin (solvent: DES-1 (ChCl-lactic acid 1:1)): 22.7 mg/g; Solubility of Baicalin (solvent: DES-2 (ChCl-glucose 1:1)): 18.2 mg/g; Solubility of Baicalin (solvent: DES-3 (ChCl-glycerol 1:1)): 12.35 mg/g; Solubility of Baicalin (solvent: DES-4 (ChCl-1,4-butanediol 1:1)): 2.25 mg/g; Solubility of Baicalin (solvent: DES-5 (ChCl-ethylene glycol 1:1)): 17.8 mg/g; Solubility of Baicalin (solvent: Water): 0.18 mg/g
